The values below come from publication PMC4643019, “Imaging Sites of Inhibition of Proteolysis in Pathomimetic Human Breast Cancer Cultures by Light-Activated Ruthenium Compound” (PLoS ONE, 2015).

In series [1] the target is T1, CTSB activity in MDA-MB-231 cell lysates (Homo sapiens, UniProt P07858).
T1 construct: endogenous in cells; host or cells: MDA-MB-231 (ATCC) cell lysate
The series is described as follows: Inhibition of cellular cathepsin B activity in MDA-MB-231 cell lysates (Z-Arg-Arg-AMC). Format: biochemical. To be noted: for pIC50: MDA-MB-231 lysate. The procedure: (§1) TNBC cell lines were originally purchased from American Type Culture Collection (Rockville, MD, USA) and authenticated using the STR PowerPlex 16 system (Promega). Cells were cultured in basal medium supplemented with 10% fetal bovine serum (MDA-MB-231, DMEM; Hs578T, DMEM + 10 μg/ml bovine insulin). To prepare cell lysates, cells were grown on 100 mm dishes to ~80% confluency, washed twice with PBS (phosphate buffered saline), scraped and lysed in SME buffer (250 mM sucrose, 25 mM MES, 1 mM EDTA, pH 6.5, and 0.1% Triton X-100) and then sonicated on ice three times for 10 sec each. CTSB activity was measured as previously described. Briefly, 50 μl of cell lysate was incubated with 300 μl of activator buffer (5 mM EDTA, 10 mM DTT (pH 5.2) at 37°C during 15 min. The sample (1 μl) was added to 100 μl of the activator buffer containing cell lysate and the reaction mixtures were conducted during 45 min under dark (no irradiation) and light (irradiation at 250 W, 395–750 nm) conditions for 45 min with a tungsten halogen lamp and H2O filter on separate plates as described above. The experiments were carried out in triplicate (on 96-well flat bottom black plates) at pH 6.0.

Series [2] concerns the target T2, CTSB activity in Hs578T cell lysates (Homo sapiens, UniProt P07858).
T2 construct: endogenous in cells; host or cells: Hs578T (ATCC) cell lysate
The series is described as follows: Inhibition of cellular cathepsin B activity in Hs578T cell lysates (Z-Arg-Arg-AMC). Format: biochemical. To be noted: for pIC50: Hs578T lysate. On the procedure:
as §1

The nature of series [3]: Photoinduced ligand exchange quantum yield. The format is physicochemical. On the procedure:
Electronic absorption spectra were measured with a Hewlett-Packard 8453 diode array spectrophotometer. The ligand exchange quantum yield experiments were performed with a 150 W Xe arc lamp (USHIO) in a Milliarc lamp housing unit with an LPS-220 power supply and an LPS-221 igniter (PTI). A bandpass filter (Thorlabs) and long-pass filter (CVI Melles Griot) were used to select the appropriate irradiation wavelengths.
The photolysis experiments were performed in H2O with 2% acetone and in an acetone solution containing 0.25 M tetrabutylammonium, and the chloride (TBACl) in a 1 × 1 cm quartz cuvette, and the irradiation wavelengths were selected with a 395 nm long-pass filter. The photon flux of the arc lamp with a 335 nm long-pass filter and a 400 nm bandpass filter was determined to be 4.30 ± 0.25 × 10^−8 mol photons/min by ferrioxalate actinometry as previously described in detail. The quantum yields (Φ) for ligand dissociation of 2 were determined in each of the solvent systems in a 1 × 1 cm quartz cuvette. The decrease in the MLCT absorption maximum of the reactant with ε = 10,360 M^–1cm^–1 at 412 nm as a function of time was monitored at early irradiation times to calculate the rate of moles of reactant converted to intermediate, I. The increase of the MLCT absorption maximum of the product at 490 nm (ε = 9,300 M^–1cm^–1) was monitored at irradiation times after the formation of the intermediate to determine the rate of moles of product P formed. These rates along with the photon flux were used to calculate the quantum yields for the first and second steps, ΦR→I and ΦI→P, respectively.

[4] abbreviates: dark (no irradiation) 45 min, read-out: IC50 (dark).
Setting [5] is: light λirr = 395–750 nm, 45 min, read-out: IC50 (light).
Setting [6] is: acetone solution containing 0.25 M TBACl.
The mark [7] stands for this setting: water (2% acetone), λirr = 400 nm.

SMILES strings stand for the structures. pIC50: −log10 of the molar value. Where two headings read alike, the source gives them in different places.

Take `Cc1cccc(CC(NC(=O)c2ccc(Cl)c(Cl)c2)C(=O)NCC#N)c1.Cc1cccc(CC(NC(=O)c2ccc(Cl)c(Cl)c2)C(=O)NCC#N)c1.F[B-](F)(F)F.F[B-](F)(F)F.[Ru+2].c1ccc(-c2ccccn2)nc1.c1ccc(-c2ccccn2)nc1` (mixture of isomers) [compound 2, Δ- and Λ-cis [Ru(bpy)2(1)2](BF4)2]: the figures for the dark/light ratio in series [1] (MDA-MB-231 cell lysates) and in series [2] (Hs578T cell lysates) were 79.6 and 12.6, respectively. For the same compound, the pIC50 in series [1] (setting [4]) was 3.90; in series [1] (setting [5]) it was 5.80; in series [2] (setting [4]) it was 4.95; in series [2] (setting [5]) it was 6.05. The results for the “quantum yield of ligand exchange, first step ΦR→I” value in series [3] (setting [6]) and in series [3] (setting [7]) were 0.056(9) and 0.026(4), respectively. For the same compound, the “quantum yield of ligand exchange, second step ΦI→P” value in series [3] (setting [6]) is on record as 0.032; in series [3] (setting [7]), 0.0045(9).
